Entries after “also recorded” stand apart in the source; their conditions may differ.
Assays:
[1] = test system: ocular structures; conditions: cited from earlier work
[2] = test system: eye bank eyes; assay: Dye solution instilled by injection into the anterior chamber of eye bank eyes, viewed by naked eye / operating microscope; parameters: species or system human; conditions: for egress of dye from the eye into outflow vessels after injection into the anterior chamber: eye bank eyes, Indigo Carmine 0.004, 0.04, 0.4 wt. %, other ophthalmic dyes for comparison
Text: After an incision is made into the anterior chamber of the eye, a small amount of aqueous humor is expressed and the dye solution is instilled by injection into the anterior chamber. The dye solution is typically left in place for 30 seconds, during which time it stains the anterior capsule of the lens. Excess dye solution is then expelled, usually using a viscoelastic device or flushed out with a balanced salt solution.
Dye solutions containing 0.004 wt. %, 0.04 wt. %, and 0.4 wt. % of Indigo Carmine (prepared by serial dilutions of a 0.4 wt. % Indigo Carmine solution provided by Micro-Tech (Nanjing) Co.) were instilled by injection into the anterior chamber of seven eye bank eyes following the dye solution instillation procedure detailed above.
Special imaging techniques were not required.

[3] = test system: anterior capsule; conditions: cited from earlier work
[4] = reduced state, fluorescent; cited from earlier work
[5] = test system: protein; conditions: sodium salt; cited from earlier work
[6] = test system: ocular surface squamous neoplastic lesion; assay: Topical application of dye to a human eye, slit lamp view of ocular surface squamous neoplastic lesion; format: in vivo
Text: FIG. 8 is a slit lamp view of a human eye wherein an ocular surface squamous neoplastic lesion is delineated after topical application of Indigo Carmine. A blue outline is seen around the perimeter of the white ocular surface squamous neoplastic lesion.
In certain embodiments, the dye delineates eye surface dysplasia and malignancy (ocular surface squamous neoplasia) as has been found in the gut (see, e.g., Oyama, T., “Diagnostic strategies of superficial Barrett's esophageal cancer for endoscopic submucosal dissection”, Dig. Endosc., 2013, 25 Suppl 1:7-12) (see FIG. 7)

[7] = cited from earlier work
[8] = test system: porcine eye; assay: Dye injected into the lenticular plain after Small Incision Lenticule Extraction (SMILE) in a porcine eye; conditions: injected along the laser incision planes
Text: FIG. 9A is an operating microscope view of a porcine eye upon which a Small Incision Lenticule Extraction procedure (SMILE) has been carried out. From this view, circular horizontal plains have been cut in the corneal stroma, a superficial smaller diameter cut and a deeper cut of larger diameter. The cuts join in the corneal periphery, thereby creating a lenticule. The arrows show the edge of these cuts.
FIG. 9B is an operating microscope view of a porcine eye upon which a Small Incision Lenticule Extraction procedure (SMILE) has been carried out. Indigo Carmine has been injected into the lenticular plain. The white arrows indicate the complete circular edge of the lenticule.
Minimally invasive corneal procedures for correcting refractive error (see, e.g., Titiyal, J. S., et al., “Learning Curve of Small Incision Lenticule Extraction: Challenges and Complications”, Cornea, 2017, 36:1377-1382) have also been developed in recent years. For example, in Small Incision Lenticule Extraction (SMILE), a lenticule of corneal stroma is created within the stroma using a laser and then removed through a small incision. Occasionally, the cuts that create the lenticule are discontinuous, making lenticule extraction difficult. […]

[9] = anterior chamber perfused with dye solution, sodium salt

Cc1cc(-c2ccc(/N=N/c3c(S(=O)(=O)O)cc4cc(S(=O)(=O)O)cc(N)c4c3O)c(C)c2)ccc1/N=N/c1c(S(=O)(=O)O)cc2cc(S(=O)(=O)O)cc(N)c2c1O [Trypan Blue]
identifying and visualizing anterior lens capsule and trabecular meshwork [1]: effective | identifying or visualizing the canal of Schlemm [1]: not effective | staining of the trabecular meshwork ([2]; anterior chamber perfused with dye solution): particularly enhances trabecular meshwork staining | egress of dye from the eye into outflow vessels after injection into the anterior chamber [2]: appears to remain within the eye | lowest concentration at which staining can occur [3]: 0.0125 wt. %

CC1(C)C(/C=C/C=C/C=C/C=C2\N(CCCCS(=O)(=O)O)c3ccc4ccccc4c3C2(C)C)=[N+](CCCCS(=O)(=O)[O-])c2ccc3ccccc3c21 [Indocyanine Green]
egress of dye from the eye into outflow vessels after injection into the anterior chamber [2]: appears to remain within the eye

CCN(CC)c1ccc(C(=C2C=CC(=[N+](CC)CC)C=C2)c2cc(O)c(S(=O)(=O)O)cc2S(=O)(=O)O)cc1 [Patent Blue]
egress of dye from the eye into outflow vessels after injection into the anterior chamber [2]: appears to remain within the eye

Brilliant Blue
egress of dye from the eye into outflow vessels after injection into the anterior chamber [2]: appears to remain within the eye

O=C1C(=C2Nc3ccc(S(=O)(=O)[O-])cc3C2=O)Nc2ccc(S(=O)(=O)[O-])cc21.[Na+].[Na+] [Indigo Carmine, 5,5′-indigodisulfonic acid sodium salt]
absorption maximum [4]: 436 nm | emission maximum [4]: 528 nm | protein binding [5]: low protein binding; also recorded: relatively reduced | staining of the canal of Schlemm [2, 9]: heavily; also recorded: heavy staining | staining of the trabecular meshwork [2, 9]: lightly; also recorded: more lightly stained | visibility of dye in the collector channels on the surface of the eye ([2]; at each concentration: 0.004, 0.04 and 0.4 wt. %): visible to the naked eye of the surgeon as it appeared in the collector channels on the surface of the eye | staining of the anterior capsule of the lens ([2]; capsulorhexis procedure, eye bank eye): lightly stained | dye in the deep scleral plexus ([2]; conjunctiva reflected away, sodium salt): observed in the deep scleral plexus; also recorded: deeper vessels are seen, evidence of the deep scleral plexus | egress of dye from the eye into outflow vessels after injection into the anterior chamber ([2]; sodium salt): appeared in the fine vessels in the conjunctiva adjacent to the limbus, the aqueous veins and the conjunctival venous system; also recorded: some of the dye exiting the eye through the aqueous veins | visibility of dye on the surface of the instilled eye ([2]; no special imaging): easily visible to the naked eye of the surgeon | delineation of ocular surface squamous neoplastic lesion [6]: delineated | solubility in water [7]: soluble in water | identification of laser incision planes and lenticule edge [8]: possible to identify and determine the extent of these incisions
